According to ChEMBL document CHEMBL3877316, “Synthesis of pharmacologically important naphthoquinones and anticancer activity of 2-benzyllawsone through DNA topoisomerase-II inhibition” (Bioorg Med Chem, 2017):
pIC50: −log10 of the molar value.

Legend:
[1] = Antiproliferative activity against human FADU cells after 48 hrs by SRB assay; assay type: functional, cell-based
[2] = Antiproliferative activity against human DU145 cells after 48 hrs by SRB assay; assay type: functional, cell-based; settings: DU-145, 48 h
[3] = Antiproliferative activity against HEK293 cells after 48 hrs by SRB assay; assay type: cell-based; settings: Homo sapiens, HEK293, 48 h
[4] = Antiproliferative activity against human DLD1 cells after 48 hrs by SRB assay; assay type: functional, cell-based; settings: DLD-1, 48 h
FaDu = assay: Inhibition of topoisomerase-2 in human FADU cells at 2 times antiproliferative IC50 after 24 hrs by ELISA relative to control; assay type: cell-based
[5] = Antiproliferative activity against human A549 cells after 48 hrs by SRB assay; assay type: functional, cell-based; settings: A549, 48 h
[6] = Antiproliferative activity against human MCF7 cells after 48 hrs by SRB assay; assay type: functional, cell-based; settings: MCF7, 48 h

Row | SMILES | pIC50 [1] | pIC50 [2] | pIC50 [3] | pIC50 [4] | inhibition (FaDu) | pIC50 [5] | pIC50 [6]
1 | COc1cc([C@@H]2c3cc4c(cc3[C@@H](O[C@@H]3O[C@@H]5CO[C@@H](C)O[C@H]5[C@H](O)[C@H]3O)[C@H]3COC(=O)[C@H]23)OCO4)cc(OC)c1O [ETOPOSIDE] | 4.80 | 4.97 | 5.12 | 5.09 | 51.7% | < 4.52 | < 4.52
2 | CC1(C)CCC2=C(O1)c1ccccc1C(=O)C2=O [LAPACHONE] | – | – | 4.60 | – | 53.9% | – | –
3 | CCOC(=O)COC1=C(CC(=O)OCC)C(=O)c2ccccc2C1=O | 4.66 | < 4.52 | < 3.82 | < 4.52 | 21.4% | 4.68 | < 4.52
4 | CCOC(=O)COC1=CC(=O)c2ccccc2C1=O | 4.70 | < 4.52 | < 3.82 | < 4.52 | 16.8% | 4.81 | < 4.52
5 | COc1cc(COC2=CC(=O)c3ccccc3C2=O)cc(OC)c1OC | 4.78 | 4.60 | < 3.82 | < 4.52 | 14.7% | 4.72 | < 4.52
